In ChEMBL document CHEMBL1201862, “PubChem BioAssay data set” (2004):
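Following 48 hours of exposure in 96-well plates, responses at five concentrations were used to interpolate endpoints linearly. Abbreviation: GI50, concentration required for 50% inhibition of growth.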 Calls of active or inactive are those of the source. Rule as the data show it: active = GI50 up to about 1.1 µM and inactive = higher.

Columns and labels:
Assay in all cases: NCI tumour cell line growth inhibition, 48 h
SNB-78 = system: SNB-78
DMS-273 = system: DMS-273
LXFL 529 = system: LXFL 529
M19-MEL = system: M19-MEL
KM-20L2 = system: KM-20L2
HOP-18 = system: HOP-18
Hs-578T = system: Hs-578T
786-0 = system: 786-0

Compound: COC(=O)C(NC(=O)c1ccccc1)C(c1ccc(Cl)cc1)P(=O)(OC)OC (centres undefined)
- GI50 (SNB-78): > 100 µM (inactive)
- GI50 (DMS-273): > 100 µM (inactive)
- GI50 (LXFL 529): > 100 µM (inactive)
- GI50 (M19-MEL): > 100 µM (inactive)
- GI50 (KM-20L2): > 100 µM (inactive)

Compound: Cc1ccc2nc3c(C(=O)NCCN(C)C)cccc3cc2c1
- GI50 (SNB-78): 4.24 µM (inactive)
- GI50 (DMS-273): 1.5 µM (inactive)
- GI50 (M19-MEL): 1.95 µM (inactive)
- GI50 (KM-20L2): 0.75 µM (active)
- GI50 (HOP-18): 1.46 µM (inactive)

Compound: CC(=O)O[C@H]1CC[C@H]2[C@@H]3CC[C@H]4Nc5c(cnn5S(C)(=O)=O)C[C@]4(C)[C@H]3CC[C@]12C
- GI50 (Hs-578T): 45.6 µM (inactive)

Compound: COc1cc2c(cc1OC)C(=O)/C(=C/c1cc(OC)c(OC)c(OC)c1)C2
- GI50 (Hs-578T): > 100 µM (inactive)

Compound: O=C1CN2C(Cl)(Cl)C2(c2ccccc2)c2cc(Cl)ccc2N1CC(F)(F)F (centres undefined)
- GI50 (DMS-273): 24.8 µM (inactive)
- GI50 (M19-MEL): 38.3 µM (inactive)
- GI50 (KM-20L2): 32.5 µM (inactive)

Compound: CC(C)C(/C=C/c1ccc(Cl)cc1)=N\NC(=O)N/N=C(/C=C/c1ccc(Cl)cc1)C(C)C
- GI50 (786-0): 17.6 µM (inactive)
- GI50 (Hs-578T): 20.1 µM (inactive)

Compound: O=S1(=O)C[C@@H](NCc2ccccc2)[C@H](NCc2ccccc2)C1
- GI50 (Hs-578T): > 100 µM (inactive)

Compound: CN1C2CCC1C(CO)C(=O)C2 (centres undefined)
- GI50 (Hs-578T): > 100 µM (inactive)

Compound: CC1OC1C(=O)C1(O)C(C)C(O)C23OC2(C(O)c2c(O)cccc2C3=O)C1O (centres undefined) [CERVICARCIN]
- GI50 (SNB-78): 0.267 µM (active)
- GI50 (DMS-273): 0.184 µM (active)
- GI50 (M19-MEL): 0.0933 µM (active)
- GI50 (KM-20L2): 0.214 µM (active)
- GI50 (HOP-18): 0.0605 µM (active)

Compound: COc1ccc2c3c1O[C@H]1C[C@@H](O)C=C[C@@]31CCN(C)C2 [GALANTAMINE]
- GI50 (SNB-78): 103 µM (inactive)
- GI50 (DMS-273): > 150 µM (inactive)
- GI50 (M19-MEL): > 150 µM (inactive)
- GI50 (KM-20L2): > 150 µM (inactive)
- GI50 (HOP-18): > 150 µM (inactive)
